# Laboratory results: ChEMBL document CHEMBL1773059, “NMS-P937, a 4,5-dihydro-1H-pyrazolo[4,3-h]quinazoline derivative as potent and selective Polo-like kinase 1 inhibitor” (Bioorg Med Chem Lett, 2011)
# Tests used:
# Mus musculus [1] = assay: Toxicity in CD1 nu/nu mouse xenografted with human HCT116 cells assessed as reversible body weight loss at 90 mg/kg, po once daily administered on days 1 to 2 in weekly scheduling for 4 cycles measured on day 36; settings: in vivo
# [2] = molecular target: Mitogen-activated protein kinase 14 (Homo sapiens, UniProt Q16539); assay: Inhibition of P38alpha assessed as [33P]gamma-ATP incorporation into substrate after 60 mins by gamma counting
# [3] = molecular target: Tyrosine-protein kinase ZAP-70 (Homo sapiens, UniProt P43403); assay: Inhibition of ZAP70 assessed as [33P]gamma-ATP incorporation into substrate after 60 mins by gamma counting
# [4] = molecular target: Maternal embryonic leucine zipper kinase (Homo sapiens, UniProt Q14680); assay: Inhibition of MELK assessed as [33P]gamma-ATP incorporation into substrate after 60 mins by gamma counting
# HCT-116 = assay: Antitumor activity against human HCT116 cells xenografted in CD1 nu/nu mouse assessed as tumor growth inhibition at 45 mg/kg, iv BID administered on days 1 to 3 in weekly scheduling for 2 cycles measured on day 24; format: functional; settings: HCT-116, 576 h, read-out: TGI
# Aurora kinase A = Aurora kinase A (Homo sapiens, UniProt O14965); assay: Inhibition of Aur-A assessed as [33P]gamma-ATP incorporation into substrate after 60 mins by gamma counting
# [5] = Inhibition of PDGFR assessed as [33P]gamma-ATP incorporation into substrate after 60 mins by gamma counting
# [6] = molecular target: MAP kinase-activated protein kinase 2 (Homo sapiens, UniProt P49137); assay: Inhibition of MAPKAPK2 assessed as [33P]gamma-ATP incorporation into substrate after 60 mins by gamma counting
# [7] = molecular target: Cyclin-dependent kinase 2/cyclin E1 (Homo sapiens, UniProt P24941); assay: Inhibition of CDK2/CYCE assessed as [33P]gamma-ATP incorporation into substrate after 60 mins by gamma counting; format: protein-complex assay
# [8] = molecular target: Serine/threonine-protein kinase NIM1 (Homo sapiens, UniProt Q8IY84); assay: Inhibition of NIM1 assessed as [33P]gamma-ATP incorporation into substrate after 60 mins by gamma counting
# [9] = molecular target: Serine/threonine-protein kinase Chk1 (Homo sapiens, UniProt O14757); assay: Inhibition of CHK1 assessed as [33P]gamma-ATP incorporation into substrate after 60 mins by gamma counting
# [10] = molecular target: MAP kinase-interacting serine/threonine-protein kinase 2 (Homo sapiens, UniProt Q9HBH9); assay: Inhibition of MNK2 assessed as [33P]gamma-ATP incorporation into substrate after 60 mins by gamma counting
# [11] = molecular target: Vascular endothelial growth factor receptor 2 (Homo sapiens, UniProt P35968); assay: Inhibition of VEGFR2 assessed as [33P]gamma-ATP incorporation into substrate after 60 mins by gamma counting
# [12] = molecular target: Cyclin-dependent kinase 1/cyclin B1 (Homo sapiens, UniProt P06493); assay: Inhibition of CDK1/CYCB assessed as [33P]gamma-ATP incorporation into substrate after 60 mins by gamma counting; format: protein-complex assay
# [13] = molecular target: Serine/threonine-protein kinase pim-2 (Homo sapiens, UniProt Q9P1W9); assay: Inhibition of PIM2 assessed as [33P]gamma-ATP incorporation into substrate after 60 mins by gamma counting
# Insulin receptor = Insulin receptor (Homo sapiens, UniProt P06213); assay: Inhibition of IR assessed as [33P]gamma-ATP incorporation into substrate after 60 mins by gamma counting
# Mus musculus [14] = assay: Toxicity in CD1 nu/nu mouse xenografted with human HCT116 cells assessed as reversible body weight loss at 120 mg/kg, po once daily administered on days 1 to 2 in weekly scheduling for 4 cycles measured on day 29; settings: in vivo
# [15] = molecular target: Vascular endothelial growth factor receptor 3 (Homo sapiens, UniProt P35916); assay: Inhibition of VEGFR3 assessed as [33P]gamma-ATP incorporation into substrate after 60 mins by gamma counting
# Focal adhesion kinase 1 = Focal adhesion kinase 1 (Homo sapiens, UniProt Q05397); assay: Inhibition of FAK assessed as [33P]gamma-ATP incorporation into substrate after 60 mins by gamma counting
# [16] = molecular target: Glycogen synthase kinase-3 beta (Homo sapiens, UniProt P49841); assay: Inhibition of GSK3-beta assessed as [33P]gamma-ATP incorporation into substrate after 60 mins by gamma counting
# [17] = molecular target: Protein-tyrosine kinase 6 (Homo sapiens, UniProt Q13882); assay: Inhibition of BRK assessed as [33P]gamma-ATP incorporation into substrate after 60 mins by gamma counting
# [18] = Intrinsic clearance in rat hepatocytes at 1 uM; format: ADME, cell-based, Liver, Hepatocyte
# [19] = molecular target: Protein kinase C beta type (Homo sapiens, UniProt P05771); assay: Inhibition of PKCbeta assessed as [33P]gamma-ATP incorporation into substrate after 60 mins by gamma counting
# [20] = molecular target: Tyrosine-protein kinase JAK3 (Homo sapiens, UniProt P52333); assay: Inhibition of JAK3 assessed as [33P]gamma-ATP incorporation into substrate after 60 mins by gamma counting
# [21] = molecular target: Mitogen-activated protein kinase 1 (Homo sapiens, UniProt P28482); assay: Inhibition of ERK2 assessed as [33P]gamma-ATP incorporation into substrate after 60 mins by gamma counting
# [22] = molecular target: Serine/threonine-protein kinase haspin (Homo sapiens, UniProt Q8TF76); assay: Inhibition of Haspin assessed as [33P]gamma-ATP incorporation into substrate after 60 mins by gamma counting
# Mus musculus [23] = assay: Toxicity in CD1 nu/nu mouse xenografted with human HCT116 cells assessed as mortality at 90 mg/kg, po BID administered on days 1 to 2 in weekly scheduling for 4 cycles; format: organism-based, HCT-116; design: dose 90 mg/kg, route oral; settings: in vivo
# [24] = molecular target: Serine/threonine-protein kinase tousled-like 2 (Homo sapiens, UniProt Q86UE8); assay: Inhibition of TLK2 assessed as [33P]gamma-ATP incorporation into substrate after 60 mins by gamma counting
# [25] = molecular target: Tyrosine-protein kinase Lyn (Homo sapiens, UniProt P07948); assay: Inhibition of LYN assessed as [33P]gamma-ATP incorporation into substrate after 60 mins by gamma counting
# Sequence of Focal adhesion kinase 1 (Q05397 whole entry): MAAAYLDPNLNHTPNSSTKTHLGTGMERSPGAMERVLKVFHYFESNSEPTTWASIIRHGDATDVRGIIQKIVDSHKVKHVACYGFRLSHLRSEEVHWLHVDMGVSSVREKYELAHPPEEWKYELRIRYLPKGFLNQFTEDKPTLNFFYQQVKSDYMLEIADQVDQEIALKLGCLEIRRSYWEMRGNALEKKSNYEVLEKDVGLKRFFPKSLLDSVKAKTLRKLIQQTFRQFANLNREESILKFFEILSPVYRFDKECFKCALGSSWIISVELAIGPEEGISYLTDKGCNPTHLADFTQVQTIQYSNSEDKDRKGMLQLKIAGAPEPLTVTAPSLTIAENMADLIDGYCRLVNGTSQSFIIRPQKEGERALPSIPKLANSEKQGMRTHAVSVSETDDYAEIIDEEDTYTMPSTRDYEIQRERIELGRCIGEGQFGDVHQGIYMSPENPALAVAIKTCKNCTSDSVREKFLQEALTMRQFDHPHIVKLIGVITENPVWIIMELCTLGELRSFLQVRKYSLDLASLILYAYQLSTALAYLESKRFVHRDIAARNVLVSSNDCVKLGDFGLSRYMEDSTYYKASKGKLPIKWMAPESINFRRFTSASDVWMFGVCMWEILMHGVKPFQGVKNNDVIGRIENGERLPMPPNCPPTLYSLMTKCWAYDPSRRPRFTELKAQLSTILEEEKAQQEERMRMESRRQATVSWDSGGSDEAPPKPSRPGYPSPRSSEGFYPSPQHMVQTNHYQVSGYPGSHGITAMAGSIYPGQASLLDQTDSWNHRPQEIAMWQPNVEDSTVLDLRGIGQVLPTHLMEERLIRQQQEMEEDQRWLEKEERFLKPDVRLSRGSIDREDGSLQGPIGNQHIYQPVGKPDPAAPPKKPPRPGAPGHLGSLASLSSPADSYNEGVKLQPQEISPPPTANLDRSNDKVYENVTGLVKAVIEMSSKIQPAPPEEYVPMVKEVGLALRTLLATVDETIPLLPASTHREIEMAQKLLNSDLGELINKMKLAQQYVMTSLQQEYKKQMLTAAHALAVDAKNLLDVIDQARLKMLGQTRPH
# Sequence of Mitogen-activated protein kinase 14 (Q16539 whole entry): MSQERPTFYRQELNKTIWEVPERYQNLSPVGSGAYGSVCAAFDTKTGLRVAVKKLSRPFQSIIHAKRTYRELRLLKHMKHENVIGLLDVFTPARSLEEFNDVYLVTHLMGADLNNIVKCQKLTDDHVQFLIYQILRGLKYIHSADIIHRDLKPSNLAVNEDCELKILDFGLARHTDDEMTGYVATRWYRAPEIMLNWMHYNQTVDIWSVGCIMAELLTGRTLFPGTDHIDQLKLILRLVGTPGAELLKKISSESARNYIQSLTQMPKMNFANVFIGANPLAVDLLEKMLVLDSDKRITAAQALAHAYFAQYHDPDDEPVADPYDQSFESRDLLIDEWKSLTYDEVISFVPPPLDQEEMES
# Sequence of Tyrosine-protein kinase ZAP-70 (P43403 whole entry): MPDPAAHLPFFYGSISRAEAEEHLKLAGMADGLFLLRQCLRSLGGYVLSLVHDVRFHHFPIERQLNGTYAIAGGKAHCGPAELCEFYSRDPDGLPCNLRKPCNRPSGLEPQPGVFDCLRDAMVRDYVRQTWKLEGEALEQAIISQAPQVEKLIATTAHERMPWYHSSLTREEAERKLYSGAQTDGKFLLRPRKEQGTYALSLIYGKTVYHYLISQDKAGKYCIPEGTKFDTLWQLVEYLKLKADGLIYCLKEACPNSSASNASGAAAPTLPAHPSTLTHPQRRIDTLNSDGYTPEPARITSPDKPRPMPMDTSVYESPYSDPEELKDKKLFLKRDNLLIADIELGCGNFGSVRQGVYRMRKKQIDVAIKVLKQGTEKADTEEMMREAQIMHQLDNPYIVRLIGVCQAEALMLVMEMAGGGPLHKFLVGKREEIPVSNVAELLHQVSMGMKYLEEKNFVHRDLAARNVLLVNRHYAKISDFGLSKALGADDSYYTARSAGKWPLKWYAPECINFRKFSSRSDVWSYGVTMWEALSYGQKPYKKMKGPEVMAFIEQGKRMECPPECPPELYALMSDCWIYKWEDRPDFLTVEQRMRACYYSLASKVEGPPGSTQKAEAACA
# Sequence of Cyclin-dependent kinase 1/cyclin B1 (P06493 whole entry): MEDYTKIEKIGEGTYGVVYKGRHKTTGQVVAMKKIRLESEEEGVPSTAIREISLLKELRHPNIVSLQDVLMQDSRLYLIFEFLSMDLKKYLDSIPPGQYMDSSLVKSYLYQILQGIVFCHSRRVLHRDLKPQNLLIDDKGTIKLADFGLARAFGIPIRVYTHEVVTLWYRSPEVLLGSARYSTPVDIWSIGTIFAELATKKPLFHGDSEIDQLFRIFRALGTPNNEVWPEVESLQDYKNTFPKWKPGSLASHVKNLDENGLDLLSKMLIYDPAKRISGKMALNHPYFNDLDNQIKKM
# Sequence of Cyclin-dependent kinase 1/cyclin B1 (P14635 whole entry, further chain): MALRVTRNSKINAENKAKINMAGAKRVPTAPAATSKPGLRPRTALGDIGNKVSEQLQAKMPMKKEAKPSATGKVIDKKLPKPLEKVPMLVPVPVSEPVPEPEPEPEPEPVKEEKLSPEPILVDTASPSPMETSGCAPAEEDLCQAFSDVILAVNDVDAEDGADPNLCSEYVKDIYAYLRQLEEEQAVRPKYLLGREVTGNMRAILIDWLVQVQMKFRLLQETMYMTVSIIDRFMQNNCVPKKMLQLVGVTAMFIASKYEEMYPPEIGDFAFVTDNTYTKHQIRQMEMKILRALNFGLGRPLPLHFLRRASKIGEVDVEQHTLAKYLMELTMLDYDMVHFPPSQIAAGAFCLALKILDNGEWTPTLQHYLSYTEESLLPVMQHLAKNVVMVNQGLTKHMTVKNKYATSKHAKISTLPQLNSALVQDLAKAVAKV
# Sequence of Tyrosine-protein kinase JAK3 (P52333 whole entry): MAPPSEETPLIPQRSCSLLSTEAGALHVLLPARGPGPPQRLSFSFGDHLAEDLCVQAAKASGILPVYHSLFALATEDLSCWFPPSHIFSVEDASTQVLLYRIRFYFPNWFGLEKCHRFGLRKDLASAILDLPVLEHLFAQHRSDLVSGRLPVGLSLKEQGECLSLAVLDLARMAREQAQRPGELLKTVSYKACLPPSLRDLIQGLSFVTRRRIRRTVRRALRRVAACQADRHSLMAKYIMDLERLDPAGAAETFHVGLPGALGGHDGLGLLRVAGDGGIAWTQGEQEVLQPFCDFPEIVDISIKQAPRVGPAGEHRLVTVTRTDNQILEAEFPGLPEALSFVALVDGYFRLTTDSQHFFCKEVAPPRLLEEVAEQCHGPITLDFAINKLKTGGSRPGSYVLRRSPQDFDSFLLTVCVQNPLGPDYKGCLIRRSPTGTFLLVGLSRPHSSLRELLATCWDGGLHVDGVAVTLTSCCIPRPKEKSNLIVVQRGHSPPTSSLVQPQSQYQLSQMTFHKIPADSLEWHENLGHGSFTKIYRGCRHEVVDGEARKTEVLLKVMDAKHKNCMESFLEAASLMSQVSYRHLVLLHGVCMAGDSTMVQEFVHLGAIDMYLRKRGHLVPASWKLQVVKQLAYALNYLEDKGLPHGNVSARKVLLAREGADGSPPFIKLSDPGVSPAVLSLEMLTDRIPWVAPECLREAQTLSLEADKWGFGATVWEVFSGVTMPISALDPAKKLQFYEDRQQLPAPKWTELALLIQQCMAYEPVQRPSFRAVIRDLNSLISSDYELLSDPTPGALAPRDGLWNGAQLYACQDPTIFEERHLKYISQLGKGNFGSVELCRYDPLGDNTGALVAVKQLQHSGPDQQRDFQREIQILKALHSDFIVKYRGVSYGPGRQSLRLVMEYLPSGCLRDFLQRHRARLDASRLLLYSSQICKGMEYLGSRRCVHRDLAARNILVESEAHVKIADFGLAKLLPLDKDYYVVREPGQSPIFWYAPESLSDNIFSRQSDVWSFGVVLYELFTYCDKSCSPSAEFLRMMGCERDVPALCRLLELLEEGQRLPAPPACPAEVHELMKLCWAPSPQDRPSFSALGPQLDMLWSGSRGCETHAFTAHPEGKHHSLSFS
# Sequence of Protein-tyrosine kinase 6 (Q13882 whole entry): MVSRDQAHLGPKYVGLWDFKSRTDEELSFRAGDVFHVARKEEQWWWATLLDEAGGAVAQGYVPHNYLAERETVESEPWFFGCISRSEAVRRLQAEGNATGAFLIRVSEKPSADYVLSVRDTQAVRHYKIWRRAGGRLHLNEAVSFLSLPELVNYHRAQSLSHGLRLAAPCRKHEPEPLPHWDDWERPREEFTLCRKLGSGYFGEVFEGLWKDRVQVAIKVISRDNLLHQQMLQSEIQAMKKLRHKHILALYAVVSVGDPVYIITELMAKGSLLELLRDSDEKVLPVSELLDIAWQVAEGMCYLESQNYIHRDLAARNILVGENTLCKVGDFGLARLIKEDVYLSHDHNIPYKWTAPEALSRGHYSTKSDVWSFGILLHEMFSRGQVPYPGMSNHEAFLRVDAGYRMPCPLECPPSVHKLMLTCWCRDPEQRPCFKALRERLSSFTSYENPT
# Sequence of Mitogen-activated protein kinase 1 (P28482 whole entry): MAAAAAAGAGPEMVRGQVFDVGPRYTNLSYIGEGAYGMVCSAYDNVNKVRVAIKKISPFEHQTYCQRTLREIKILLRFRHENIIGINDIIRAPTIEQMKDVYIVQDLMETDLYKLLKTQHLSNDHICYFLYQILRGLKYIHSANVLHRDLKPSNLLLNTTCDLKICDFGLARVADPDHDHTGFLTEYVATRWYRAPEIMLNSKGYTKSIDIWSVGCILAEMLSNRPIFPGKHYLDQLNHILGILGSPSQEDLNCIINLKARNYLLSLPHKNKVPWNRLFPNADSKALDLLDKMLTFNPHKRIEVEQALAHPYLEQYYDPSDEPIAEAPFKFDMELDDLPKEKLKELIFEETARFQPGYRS
# Sequence of Serine/threonine-protein kinase pim-2 (Q9P1W9 whole entry): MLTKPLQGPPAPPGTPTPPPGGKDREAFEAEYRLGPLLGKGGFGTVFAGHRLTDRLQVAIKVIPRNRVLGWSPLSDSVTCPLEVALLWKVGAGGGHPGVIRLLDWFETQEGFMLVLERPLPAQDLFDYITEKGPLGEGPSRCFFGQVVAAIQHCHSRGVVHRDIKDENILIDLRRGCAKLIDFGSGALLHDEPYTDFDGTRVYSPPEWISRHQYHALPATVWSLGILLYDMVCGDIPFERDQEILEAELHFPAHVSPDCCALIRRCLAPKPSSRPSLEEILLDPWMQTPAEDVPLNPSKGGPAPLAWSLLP
compound,measurement,setting,value
CN1CCN(c2ccc(OC(F)(F)F)c(Nc3ncc4c(n3)-c3c(c(C(N)=O)nn3CCO)CC4)c2)CC1 [ONVANSERTIB],Activity,Mus musculus [1],10%
same,IC50,[2],> 10 µM
same,IC50,[3],> 10 µM
same,inhibition in vivo at 45 mg/kg,HCT-116,83%
same,IC50,Aurora kinase A,> 10 µM
same,IC50,[5],> 10 µM
same,IC50,[6],> 10 µM
same,IC50,[7],> 10 µM
same,IC50,[8],> 10 µM
same,IC50,[9],> 10 µM
same,IC50,[10],> 10 µM
same,IC50,[11],> 10 µM
same,IC50,[12],> 10 µM
same,IC50,[13],> 10 µM
same,IC50,Insulin receptor,> 10 µM
same,Activity,Mus musculus [14],18%
same,IC50,[15],> 10 µM
same,IC50,Focal adhesion kinase 1,> 10 µM
same,IC50,[16],> 10 µM
same,IC50,[17],> 10 µM
same,CLint scaled at 1 µM,[18],165 mL/min/kg
same,IC50,[19],> 10 µM
same,IC50,[20],> 10 µM
same,IC50,[21],> 10 µM
same,IC50,[22],> 10 µM
same,Activity,Mus musculus [23],Non-toxic
same,IC50,[24],> 10 µM
same,IC50,[25],> 10 µM
